According to US5750496A, “Method of controlling cryptosporidium infectons using protease inhibitors” (priority 1996, dated 1998):
Starred links: 1 amine or outer side, 2 acyl side, 3 side chain; linkers in the order of their positions; H or OH if unused. Residues, ends and D or L forms follow the SMILES beside them. *: point of attachment. MeOSuc = COC(=O)CCC(=O)*; CO = O=C([*:1])[*:2]; CH2Cl = ClC*

B1: soybean trypsin inhibitor (protein, UniProt P01070 25-205, looked up)
Trypsin inhibitor A: DFVLDNEGNPLENGGTYYILSDITAFGGIRAAPTGNERCPLTVVQSRNELDKGIGTIISSPYRIRFIAEGHPLSLKFDSFAVIMLCVGIPTEWSVVEDLPEGPAVKIGENKDAMDGWFRLERVSDDEFNNYKLVFCPQQAEDDKCGDIGISIDHDDGTRRLVVSKNKPLVVQFQKLDKESL

Columns and labels:
C. parvum = experiment: Anticryptosporidial effect in BFTE cell culture inoculated with C. parvum oocysts, parasites enumerated 24 hours post-inoculation; assay type: cell-based, Cryptosporidium parvum (bovine isolate); conditions: for Control Percent Survival: 24 hours post-inoculation; for Lowest concentrations with significant reduction (P<0.001) in parasite numbers: concentrations as low as, P<0.001 vs infection control; for Intact (i.e. unexcysted) oocysts in treated BFTE cell monolayers during microscopic enumeration: predominantly associated with concentrations exceeding 100 μg/ml
Description: C. parvum (bovine isolate) oocysts used in this study were originally donated by the U.S. Department of Agriculture, Ames, Iowa. The oocysts were isolated from calf manure, preserved in 2.5% potassium dichromate, and used within 3 months of purification. Oocysts were decontaminated by suspension in 20% (vol/vol) 1.05% sodium hypochlorite on ice for 20 minutes. Oocysts were then washed three times in Hanks' balanced salt solution ("HIBSS") and once in RPMI 1640 (available from Sigma, St. Louis, Mo.). Release of sporozoites was achieved by incubating oocysts in an excystation solution consisting of 0.25% (wt/vol) trypsin (available from Sigma, St. Louis, Mo.) and 0.75% (wt/vol) taurodeoxycholic acid (available from Sigma) in HBSS. The resulting suspension was incubated at 37° C. for 45 minutes and microscopically observed to confirm sporozoite release. Sporozoites were completely separated from intact oocysts and oocyst walls by passage through sterile polycarbonate filters (3 micron pore size, available from Millipore Corp., Bedford, Mass.) twice prior to inoculation of bovine fallopian tube epithelial ("BFTE") cell monolayers.
Primary BFTE cell cultures were prepared from bovine fallopian tubes (FT). Fat was trimmed from the serosal surfaces, mucus was gently squeezed from the lumens, and FT were decontaminated by being submerged in 70% ethanol for 30 seconds. The FT were then transferred to sterile culture petri dishes containing HBSS and washed twice. The BFTE cells were harvested either by flushing the FT with HBSS, using a 10 ml syringe equipped with a mouse feeding needle, or by opening the FT lengthwise with scissors and scraping the mucosal surfaces. The BFTE cells were subsequently washed in HBSS by centrifugation at 200×g (force of gravity) for 10 minutes, planted in 75-cm^2 flasks containing RPMI 1640 and cultured in a 5% CO2 incubator at 37° C. for 72 to 120 hours. When the cell lines reached confluency, they were trypsinized, split, and planted onto cover slips positioned on the bottoms of individual wells in 24-well tissue culture plates. When cells reached 80% confluency, they were inoculated with either 10^5 oocysts or 4×10^5 sporozoites per well. Plates were then maintained at 37° C. in a candle jar environment (17% O2, 3% CO2, 80% N2). Growth medium was changed in each well every 72 hours. In wells inoculated with oocysts, the medium was first changed at 24 hours to remove any unexcysted oocysts.
Coverslips were removed at 5, 24, 48, 72, 96, and 120 hours from the inoculated wells containing monolayers of BFTE cells. The coverslips were washed in RPMI 1640, fixed in 100% methanol for 10 minutes, stained with Giemsa stain for 1 hour, and washed three times with double-distilled water (ddH2 O). Coverslips were then mounted on glass slides and examined under oil immersion (1000X), using bright-field microscopy. Parasites were enumerated by counting all developmental stages of C. parvum present in a single scan (67 fields) through the center of each coverslip. The data were statistically compared for significance, using analysis of variance (Fischer's protected least-significant-difference test using a "[…]" statistical analysis application developed by Abacus Concepts, Inc., Berkeley, Calif.).
The anticryptosporidial potential of the protease inhibitor AAT was evaluated in a BFTE cell culture system inoculated with C. parvum oocysts in accordance with the methods detailed in Example I. […] At 24 hours post-inoculation, the BFTE cells were rinsed with RPMI medium, fixed in methanol, and stained with Giemsa. Parasites were enumerated in cell monolayers by brightfield microscopy. Results, as set out in Table 1, represent the mean number of parasites counted per treatment group expressed as a percent, plus or minus the standard deviation, of the mean number of parasites counted in the infection control group.

BFTE cells = experiment: Cytotoxicity for BFTE cells at the concentrations evaluated; assay type: cell-based, bovine; conditions: at the concentrations evaluated (5-1000 μg/ml)
Description: Primary BFTE cell cultures were prepared from bovine fallopian tubes (FT). Fat was trimmed from the serosal surfaces, mucus was gently squeezed from the lumens, and FT were decontaminated by being submerged in 70% ethanol for 30 seconds. The FT were then transferred to sterile culture petri dishes containing HBSS and washed twice. The BFTE cells were harvested either by flushing the FT with HBSS, using a 10 ml syringe equipped with a mouse feeding needle, or by opening the FT lengthwise with scissors and scraping the mucosal surfaces. The BFTE cells were subsequently washed in HBSS by centrifugation at 200×g (force of gravity) for 10 minutes, planted in 75-cm^2 flasks containing RPMI 1640 and cultured in a 5% CO2 incubator at 37° C. for 72 to 120 hours. […]
The anticryptosporidial potential of the protease inhibitor AAT was evaluated in a BFTE cell culture system inoculated with C. parvum oocysts in accordance with the methods detailed in Example I. AAT concentrations of 5, 10, 50 100, and 500 micrograms per milliliter ("μg/ml") in RPMI medium were mixed with C. parvum oocysts and used to inoculate BFTE cell monolayers. […] Results, as set out in Table 1, represent the mean number of parasites counted per treatment group expressed as a percent, plus or minus the standard deviation, of the mean number of parasites counted in the infection control group.

[1] = 5 μg/ml, mean parasites as percent of infection control +/- SD
[2] = 10 μg/ml, mean parasites as percent of infection control +/- SD
[3] = 50 μg/ml, mean parasites as percent of infection control +/- SD
[4] = 100 μg/ml, mean parasites as percent of infection control +/- SD
[5] = 500 μg/ml, mean parasites as percent of infection control +/- SD
[6] = 1000 μg/ml, mean parasites as percent of infection control +/- SD

| Molecule | Control Percent Survival (C. parvum; [1]) | Control Percent Survival (C. parvum; [2]) | Control Percent Survival (C. parvum; [3]) | Control Percent Survival (C. parvum; [4]) | Control Percent Survival (C. parvum; [5]) | Control Percent Survival (C. parvum; [6]) | Lowest concentrations with significant reduction (P<0.001) in parasite numbers (C. parvum) [µg/mL] | Intact (i.e. unexcysted) oocysts in treated BFTE cell monolayers during microscopic enumeration (C. parvum) | Cytotoxicity for BFTE cells (BFTE cells) | Number of parasites vs infection control (P<0.01) (C. parvum; 500 μg/ml) | Number of parasites vs infection control (P<0.01) (C. parvum; 10 μg/ml and 50 μg/ml) | Control Percent Survival (C. parvum; 1 mM, percent of infection control +/- SD) | Control Percent Survival (C. parvum; 2 mM, percent of infection control +/- SD) | Control Percent Survival (C. parvum; 3 mM, percent of infection control +/- SD) | Number of parasites vs infection control (P<0.001) (C. parvum; 3 mM, P<0.001) | Number of parasites vs infection control (P<0.01) (C. parvum; 50 μg/ml and 100 μg/ml) |
| --- | --- | --- | --- | --- | --- | --- | --- | --- | --- | --- | --- | --- | --- | --- | --- | --- |
| aprotinin | 83.9 +/- 6.6% | 54.2 +/- 6.0% | 36.1 +/- 4.7% | 16.8 +/- 5.1% | 10.9 +/- 4.7% | 9.4 +/- 1.8% | 5 to 10 | frequently observed | – | – | – | – | – | – | – | – |
| alpha-1-antitrypsin [AAT] | 49.1 +/- 3.8% | 43.9 +/- 4.2% | 42.7 +/- 1.6% | 30.4 +/- 1.9% | 14.7 +/- 6.3% | 1.8 +/- 0.4% | 5 to 10 | frequently observed | no evidence of cytotoxicity | – | – | – | – | – | – | – |
| COC(=O)CCC(=O)N[C@@H](C)C(=O)N[C@@H](C)C(=O)N1CCC[C@H]1C(=O)N[C@H](C(=O)CCl)C(C)C [MAAPVCK, methoxysuccinyl-ala-ala-pro-valine chloromethylketone] (MeOSuc-AAPV-CH2Cl) | 89.1 +/- 5.4% | 64.8 +/- 12.0% | 58.7 +/- 11.2% | 51.9 +/- 4.6% | 43.4 +/- 6.6% | – | – | – | – | significantly reduced | – | – | – | – | – | – |
| CC(=O)N[C@@H](CC(C)C)C(=O)N[C@@H](CC(C)C)C(=O)N[C@H](C=O)CCCNC(=N)N [Leupeptin, leupeptin] | 89.1 +/- 5.4% | 64.8 +/- 12.0% | 58.7 +/- 11.2% | 51.9 +/- 4.6% | 43.4 +/- 6.6% | – | – | – | – | – | significantly reduced | – | – | – | – | – |
| O=S(=O)(F)Cc1ccccc1 [PMSF, phenylmethylsulfonyl flouride] | – | – | – | – | – | – | – | – | – | – | – | 68.9 +/- 5.2% | 55.9 +/- 4.7% | 40.0 +/- 8.3% | significantly reduced | – |
| CC(C)[C@H](NC(=O)[C@H](CCCNC(=N)N)NC(=O)N[C@@H](Cc1ccccc1)C(=O)O)C(=O)N[C@H](C=O)CCCNC(=N)N [ANTIPAIN, antipain] ({Phe-CO}-Arg-Val-Arg-aldehyde) | 67.7 +/- 7.2% | 53.1 +/- 5.8% | 42.1 +/- 6.1% | 20.9 +/- 2.2% | 15.6 +/- 1.4% | 6.6 +/- 1.4% | 5 to 10 | frequently observed | – | – | – | – | – | – | – | – |
| B1 | 89.1 +/- 5.4% | 64.8 +/- 12.0% | 58.7 +/- 11.2% | 51.9 +/- 4.6% | 43.4 +/- 6.6% | – | – | – | – | – | – | – | – | – | – | significantly reduced |
